# Results as given in PubChem BioAssay (NCI).
#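 In this assay, cells in 96-well plates receive the compound at five concentrations for 48 hours. Endpoints are linearly interpolated between the surrounding concentrations. GI50 = concentration required for 50% inhibition of growth. TGI: concentration producing complete growth inhibition.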
# Experiments:
# Assay in all cases: growth of human tumour cells (NCI), 48 h
# A498 renal = tested on: A498 renal
# A549 NSCLC = tested on: A549 NSCLC
# CCRF-CEM leukemia = tested on: CCRF-CEM leukemia
# MALME-3M melanoma = tested on: MALME-3M melanoma
# NCI-H226 lung = tested on: NCI-H226 lung
# NCI-H460 lung = tested on: NCI-H460 lung
# OVCAR-8 ovarian = tested on: OVCAR-8 ovarian
# SK-MEL-5 melanoma = tested on: SK-MEL-5 melanoma
# TK-10 renal = tested on: TK-10 renal
# U251 CNS = tested on: U251 CNS
SMILES,TGI (A498 renal) [µM],TGI (A549 NSCLC) [µM],TGI (CCRF-CEM leukemia) [µM],TGI (MALME-3M melanoma) [µM],TGI (NCI-H226 lung) [µM],TGI (NCI-H460 lung) [µM],TGI (OVCAR-8 ovarian) [µM],TGI (SK-MEL-5 melanoma) [µM],TGI (TK-10 renal) [µM],TGI (U251 CNS) [µM],GI50 (A498 renal) [µM],GI50 (A549 NSCLC) [µM],GI50 (CCRF-CEM leukemia) [nM],GI50 (MALME-3M melanoma) [µM],GI50 (NCI-H226 lung) [nM],GI50 (NCI-H460 lung) [µM],GI50 (OVCAR-8 ovarian) [µM],GI50 (SK-MEL-5 melanoma) [nM],GI50 (TK-10 renal) [µM],GI50 (U251 CNS) [nM]
O=c1oc2ccccc2[n+]([O-])c1-c1ccccc1,> 100,> 100,> 100,> 100,> 100,> 100,> 100,> 100,> 100,> 100,–,–,–,–,–,–,–,–,–,–
CC(=O)OCC1OC(N2C(=O)C(=O)c3ccccc32)C(OC(C)=O)C(OC(C)=O)C1OC(C)=O (centres undefined),> 100,> 100,> 100,> 100,> 100,> 100,> 100,> 100,> 100,> 100,–,–,–,–,–,–,–,–,–,–
O=C(O)[C@@H](Cc1ccc2ccccc2c1)NC(=O)n1c2ccccc2c2ccccc21,9.31,> 100,18,31.5,9.32,33.5,> 100,7.27,> 100,21.2,2.23,4.36,770,4.25,2100,3.47,4.16,2550,14.9,2890
O=C(Nc1ccc(Cl)c(Cl)c1)NS(=O)(=O)c1cnccc1Oc1ccc(F)cc1,> 100,52,7.55,7.55,> 100,20.1,> 100,13.5,21.6,37.2,> 100,9.92,2470,2.53,9770,3.09,4.82,3630,3.69,3420
CC(=O)c1ccc(O)c(CN(C2CCCCC2)C2CCCCC2)c1O,> 100,> 100,1.88,> 100,> 100,> 100,> 100,> 100,> 100,> 100,–,–,–,–,–,–,–,–,–,–
O=C(/C=C/c1ccccc1)c1ccc(NCc2nc3ccccc3[nH]2)cc1,18.3,17.4,8.38,26.9,16.8,12,14.9,14.2,24,5.17,–,–,–,–,–,–,–,–,–,–
C=CC(OCC)(OCC)OCC,> 100,> 100,> 100,> 100,> 100,> 100,> 100,> 100,> 100,> 100,–,–,–,–,–,–,–,–,–,–
O=c1oc2ccc(I)cc2c(=O)n1-c1ccc(Cl)cc1F,0.7,> 100,46.6,3.49,8.53,13.1,24.9,2.19,16.9,24.5,0.141,2.87,2970,0.516,1960,0.89,1.66,751,4.09,1510
O=[N+]([O-])c1ccc(Sc2c3ccccc3nc3cc(Cl)ccc23)cc1,> 100,> 100,> 100,> 100,> 100,> 100,> 100,> 100,> 100,> 100,> 100,> 100,–,> 100,> 100000,> 100,> 100,> 100000,> 100,> 100000
O=C(N/N=C/c1ccccc1O)c1ccccc1,> 100,> 100,8.3,46.7,17.4,> 100,> 100,> 100,> 100,> 100,7.28,3.9,350,4.26,1940,1.18,3.46,2970,4.11,1940
